Test results published in patent publication US20250129069A1, “TRIAZOLO WRN INHIBITORS” (Nimbus Wadjet, Inc., priority 2023, published 2025).

Legend:
[1] = target: human Werner helicase (WRN, amino acids 517-1235 with L1074F point mutation) (Homo sapiens (Human), UniProt Q14191, L1074F); assay: WRN (BV08) ADP-Glo assay; assay type: biochemical; conditions: human WRN (aa 517-1235, L1074F), read-out: ADP-Glo_hWRN_IC50
Outline: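 Untagged WRN 517-1235 (L1074F), Sf9/baculovirus-expressed, 0.15 nM, preincubated 15 min with compound, then 5 μM ATP and 0.1 nM annealed DNA duplex added; 60 min at 25 °C in Bicine pH 7.5, 1 mM MgCl2, 1% DMSO. ADP-Glo luminescence; % inhibition vs DMSO and 20 μM NSC-617145 controls, four-parameter IC50 fit.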

[2] = tested on: p21 induction in HCT 116 cells; assay: p21 induction in cells (In-Cell Western, p21/GAPDH ratio); assay type: cell-based; conditions: Homo sapiens, 24 h compound incubation, read-out: p21_EC50
Outline: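 HCT 116 cells treated 24 h at 37° C with 11-point, 2-fold dilutions typically from 10 μM, in duplicate. Fixed cells co-stained for p21 (800 nm) and GAPDH (700 nm) by In-Cell Western. p21/GAPDH ratio normalised between DMSO and reference WRN inhibitor controls, and EC50 obtained by nonlinear regression.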

Chain of human Werner helicase (WRN, amino acids 517-1235 with L1074F point mutation) (Q14191 other isoform, or with tags, fused parts or gaps L1074F (already in the parent)): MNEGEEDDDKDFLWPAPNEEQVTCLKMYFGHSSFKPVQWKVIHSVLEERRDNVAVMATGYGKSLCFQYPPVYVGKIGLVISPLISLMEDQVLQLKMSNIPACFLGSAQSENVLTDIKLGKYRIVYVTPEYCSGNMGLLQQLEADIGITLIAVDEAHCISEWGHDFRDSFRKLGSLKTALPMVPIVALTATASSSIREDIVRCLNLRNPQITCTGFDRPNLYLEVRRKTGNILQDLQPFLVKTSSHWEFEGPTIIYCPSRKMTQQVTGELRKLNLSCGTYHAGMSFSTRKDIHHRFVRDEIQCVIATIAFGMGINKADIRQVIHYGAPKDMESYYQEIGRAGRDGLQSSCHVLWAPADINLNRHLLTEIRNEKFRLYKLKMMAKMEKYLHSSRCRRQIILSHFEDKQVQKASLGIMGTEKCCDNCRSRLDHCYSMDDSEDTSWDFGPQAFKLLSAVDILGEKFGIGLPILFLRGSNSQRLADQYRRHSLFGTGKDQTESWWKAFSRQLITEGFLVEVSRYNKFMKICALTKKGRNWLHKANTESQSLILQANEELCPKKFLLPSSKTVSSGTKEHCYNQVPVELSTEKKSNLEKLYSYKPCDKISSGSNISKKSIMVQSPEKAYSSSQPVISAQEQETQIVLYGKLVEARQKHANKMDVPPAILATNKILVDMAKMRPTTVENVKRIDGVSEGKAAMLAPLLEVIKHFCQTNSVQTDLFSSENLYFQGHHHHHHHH

| Structure (SMILES) | IC50 [1] [µM] | EC50 [2] [µM] |
| --- | --- | --- |
| CCc1c(N2CCN(C(=O)c3c(O)ccc4ncoc34)CC2)c(=O)c2nn(-c3ccnc(OC)c3)nc2n1CC(=O)NC12CC(CC)(C1)C2 [Compound I-142, 2-{5-ethyl-6-[4-(6-hydroxy-1,3-benzoxazole-7-carbonyl)piperazin-1-yl]-2-(2-methoxypyridin-4-yl)-7-oxo-2H,4H,7H-[1,2,3]triazolo[4,5-b]pyridin-4-yl}-N-{3-ethylbicyclo[1.1.1]pentan-1-yl}acetamide] | 0.005 to 0.05 | ≤ 0.5 |
| CCc1c(N2CCN(C(=O)c3c(O)ccnc3OC)CC2)c(=O)c2nn(-c3ccnc(OC)c3)nc2n1CC(=O)NC12CC(C(F)(F)F)(C1)C2 [Compound I-143, 2-{5-ethyl-6-[4-(4-hydroxy-2-methoxypyridine-3-carbonyl)piperazin-1-yl]-2-(2-methoxypyridin-4-yl)-7-oxo-2H,4H,7H-[1,2,3]triazolo[4,5-b]pyridin-4-yl}-N-[3-(trifluoromethyl)bicyclo[1.1.1]pentan-1-yl]acetamide] | 0.005 to 0.05 | 0.5 to 2 |
| CCc1c(N2CCN(C(=O)c3ncnc(C)c3O)CC2)c(=O)c2nn(C3=CCOCC3)nc2n1CC(=O)Nc1ccc(C(F)(F)F)cc1Cl [Compound I-144, N-[2-chloro-4-(trifluoromethyl)phenyl]-2-[2-(3,6-dihydro-2H-pyran-4-yl)-5-ethyl-6-[4-(5-hydroxy-6-methylpyrimidine-4-carbonyl)piperazin-1-yl]-7-oxo-2H,4H,7H-[1,2,3]triazolo[4,5-b]pyridin-4-yl]acetamide] | 0.005 to 0.05 | ≤ 0.5 |
| CCc1c(N2CCN(C(=O)c3ncnc(C)c3O)CC2)c(=O)c2nn(-c3ccncc3)nc2n1CC(=O)Nc1ccc(C(F)(F)F)cc1Cl [Compound I-147, N-[2-chloro-4-(trifluoromethyl)phenyl]-2-{5-ethyl-6-[4-(5-hydroxy-6-methylpyrimidine-4-carbonyl)piperazin-1-yl]-7-oxo-2-(pyridin-4-yl)-2H,4H,7H-[1,2,3]triazolo[4,5-b]pyridin-4-yl}acetamide] | ≤ 0.005 | ≤ 0.5 |
| CCc1c(N2CCN(C(=O)c3c(O)ccc4ncoc34)[C@H]3CC[C@@H]32)c(=O)c2nn(-c3ccnc(OC)c3)nc2n1CC(=O)NC12CC(C(F)(F)F)(C1)C2 [Compound I-148, 2-{5-ethyl-6-[(1S,6S)-5-(6-hydroxy-1,3-benzoxazole-7-carbonyl)-2,5-diazabicyclo[4.2.0]octan-2-yl]-2-(2-methoxypyridin-4-yl)-7-oxo-2H,4H,7H-[1,2,3]triazolo[4,5-b]pyridin-4-yl}-N-[3-(trifluoromethyl)bicyclo[1.1.1]pentan-1-yl]acetamide] | 0.005 to 0.05 | ≤ 0.5 |
| CCc1c(N2CCN(C(=O)c3ncnc(C)c3O)CC2)c(=O)c2nn(-c3ccnc(OC)c3)nc2n1CC(=O)Nc1ccc(C(F)(F)F)cc1Cl [Compound I-149, N-[2-chloro-4-(trifluoromethyl)phenyl]-2-{5-ethyl-6-[4-(5-hydroxy-6-methylpyrimidine-4-carbonyl)piperazin-1-yl]-2-(2-methoxypyridin-4-yl)-7-oxo-2H,4H,7H-[1,2,3]triazolo[4,5-b]pyridin-4-yl}acetamide] | ≤ 0.005 | ≤ 0.5 |
| CCc1c(N2CCN(C(=O)c3c(O)ccc4ncoc34)CC2)c(=O)c2nn(-c3ccnc(OC)c3)nc2n1CC(=O)NC12CC(C(F)(F)F)(C1)C2 [Compound I-150, 2-{5-ethyl-6-[4-(6-hydroxy-1,3-benzoxazole-7-carbonyl)piperazin-1-yl]-2-(2-methoxypyridin-4-yl)-7-oxo-2H,4H,7H-[1,2,3]triazolo[4,5-b]pyridin-4-yl}-N-[3-(trifluoromethyl)bicyclo[1.1.1]pentan-1-yl]acetamide] | 0.005 to 0.05 | ≤ 0.5 |
| CCc1c(N2CCN(C(=O)c3ncnc(C)c3O)CC2)c(=O)c2nn(-c3ccnc(OC)c3)nc2n1CC(=O)NC12CC(C(F)(F)F)(C1)C2 [Compound I-151, 2-{5-ethyl-6-[4-(5-hydroxy-6-methylpyrimidine-4-carbonyl)piperazin-1-yl]-2-(2-methoxypyridin-4-yl)-7-oxo-2H,4H,7H-[1,2,3]triazolo[4,5-b]pyridin-4-yl}-N-[3-(trifluoromethyl)bicyclo[1.1.1]pentan-1-yl]acetamide] | 0.005 to 0.05 | 0.5 to 2 |
| CCc1c(N2CCN(C(=O)c3ncc4c(c3O)CCO4)CC2)c(=O)c2nn(-c3ccnc(OC)c3)nc2n1CC(=O)Nc1ccc(C(F)(F)F)cc1Cl [Compound I-152, N-[2-chloro-4-(trifluoromethyl)phenyl]-2-[5-ethyl-6-(4-{4-hydroxy-2H,3H-furo[2,3-c]pyridine-5-carbonyl}piperazin-1-yl)-2-(2-methoxypyridin-4-yl)-7-oxo-2H,4H,7H-[1,2,3]triazolo[4,5-b]pyridin-4-yl]acetamide] | ≤ 0.005 | ≤ 0.5 |
| CCc1c(N2CCN(C(=O)c3ncnc(C)c3O)[C@H]3CC[C@@H]32)c(=O)c2nn(C3CC3)nc2n1CC(=O)Nc1ccc(C(F)(F)F)cc1Cl [Compound I-153, N-[2-chloro-4-(trifluoromethyl)phenyl]-2-{2-cyclopropyl-5-ethyl-6-[(1S,6S)-5-(5-hydroxy-6-methylpyrimidine-4-carbonyl)-2,5-diazabicyclo[4.2.0]octan-2-yl]-7-oxo-2H,4H,7H-[1,2,3]triazolo[4,5-b]pyridin-4-yl}acetamide] | ≤ 0.005 | ≤ 0.5 |

The next lines start with the values.

| IC50 [1] [µM] | EC50 [2] [µM] | Structure (SMILES) |
| --- | --- | --- |
| 0.005 to 0.05 | ≤ 0.5 | CCc1c(N2CCN(C(=O)c3ncnc(C)c3O)[C@H]3CC[C@@H]32)c(=O)c2nn(C3=CCOCC3)nc2n1CC(=O)Nc1ccc(C(F)F)cc1F [Compound I-154, N-[4-(difluoromethyl)-2-fluorophenyl]-2-[2-(3,6-dihydro-2H-pyran-4-yl)-5-ethyl-6-[(1S,6S)-5-(5-hydroxy-6-methylpyrimidine-4-carbonyl)-2,5-diazabicyclo[4.2.0]octan-2-yl]-7-oxo-2H,4H,7H-[1,2,3]triazolo[4,5-b]pyridin-4-yl]acetamide] |
| ≤ 0.005 | ≤ 0.5 | CCc1c(N2CCN(C(=O)c3ncnc(C)c3O)[C@H]3CC[C@@H]32)c(=O)c2nn(-c3ccc(OC)cc3)nc2n1CC(=O)NC12CC(C(C)C)(C1)C2 [Compound I-155, 2-{5-ethyl-6-[(1S,6S)-5-(5-hydroxy-6-methylpyrimidine-4-carbonyl)-2,5-diazabicyclo[4.2.0]octan-2-yl]-2-(4-methoxyphenyl)-7-oxo-2H,4H,7H-[1,2,3]triazolo[4,5-b]pyridin-4-yl}-N-[3-(propan-2-yl)bicyclo[1.1.1]pentan-1-yl]acetamide] |
| 0.005 to 0.05 | ≤ 0.5 | CCc1c(N2CCN(C(=O)c3ncnc(C)c3O)[C@H]3CC[C@@H]32)c(=O)c2nn(-c3ccc(OC)nc3)nc2n1CC(=O)NC12CC(C(C)C)(C1)C2 [Compound I-156, 2-{5-ethyl-6-[(1S,6S)-5-(5-hydroxy-6-methylpyrimidine-4-carbonyl)-2,5-diazabicyclo[4.2.0]octan-2-yl]-2-(6-methoxypyridin-3-yl)-7-oxo-2H,4H,7H-[1,2,3]triazolo[4,5-b]pyridin-4-yl}-N-[3-(propan-2-yl)bicyclo[1.1.1]pentan-1-yl]acetamide] |
| 0.005 to 0.05 | ≤ 0.5 | CCc1c(N2CCN(C(=O)c3cc4cc[nH]c4nc3OC)[C@H]3CC[C@@H]32)c(=O)c2nn(C3=CCOCC3)nc2n1CC(=O)NC12CC(C(C)C)(C1)C2 [Compound I-157, 2-[2-(3,6-dihydro-2H-pyran-4-yl)-5-ethyl-6-[(1S,6S)-5-{6-methoxy-1H-pyrrolo[2,3-b]pyridine-5-carbonyl}-2,5-diazabicyclo[4.2.0]octan-2-yl]-7-oxo-2H,4H,7H-[1,2,3]triazolo[4,5-b]pyridin-4-yl]-N-[3-(propan-2-yl)bicyclo[1.1.1]pentan-1-yl]acetamide] |
| 0.005 to 0.05 | ≤ 0.5 | CCc1c(N2CCN(C(=O)c3ccc4cccc(O)c4n3)[C@H]3CC[C@@H]32)c(=O)c2nn(C3=CCOCC3)nc2n1CC(=O)NC12CC(C(C)C)(C1)C2 [Compound I-158, 2-[2-(3,6-dihydro-2H-pyran-4-yl)-5-ethyl-6-[(1S,6S)-5-(8-hydroxyquinoline-2-carbonyl)-2,5-diazabicyclo[4.2.0]octan-2-yl]-7-oxo-2H,4H,7H-[1,2,3]triazolo[4,5-b]pyridin-4-yl]-N-[3-(propan-2-yl)bicyclo[1.1.1]pentan-1-yl]acetamide] |
| 0.005 to 0.05 | 0.5 to 2 | CCc1c(N2CCN(C(=O)c3ccc4cccnc4c3O)[C@H]3CC[C@@H]32)c(=O)c2nn(C3=CCOCC3)nc2n1CC(=O)NC12CC(C(C)C)(C1)C2 [Compound I-159, 2-[2-(3,6-dihydro-2H-pyran-4-yl)-5-ethyl-6-[(1S,6S)-5-(8-hydroxyquinoline-7-carbonyl)-2,5-diazabicyclo[4.2.0]octan-2-yl]-7-oxo-2H,4H,7H-[1,2,3]triazolo[4,5-b]pyridin-4-yl]-N-[3-(propan-2-yl)bicyclo[1.1.1]pentan-1-yl]acetamide] |
| 0.005 to 0.05 | 2 to 5 | CCc1c(N2CCN(C(=O)c3ncnc(C)c3O)[C@H]3CC[C@@H]32)c(=O)c2nn(C3CC4(COC4)C3)nc2n1CC(=O)NC12CC(C(C)C)(C1)C2 [Compound I-160, 2-{5-ethyl-6-[(1S,6S)-5-(5-hydroxy-6-methylpyrimidine-4-carbonyl)-2,5-diazabicyclo[4.2.0]octan-2-yl]-2-{2-oxaspiro[3.3]heptan-6-yl}-7-oxo-2H,4H,7H-[1,2,3]triazolo[4,5-b]pyridin-4-yl}-N-[3-(propan-2-yl)bicyclo[1.1.1]pentan-1-yl]acetamide] |
